Measured values reported in publication PMC7931429 (ACS Omega, 2021).

Assays:
CHIKV nsP2 = molecular target: T1, CHIKV nsP2 (Chikungunya virus, UniProt Q8JUX6); test: Cell-free protease inhibition assay with recombinant CHIKV nsP2; assay type: biochemical; details: inhibitor 1 mM, nsP2 1.4 μM, substrate 6 μM, 30 °C, 1.5 h
T1 sequence (Q8JUX6 536-1333 limits assumed): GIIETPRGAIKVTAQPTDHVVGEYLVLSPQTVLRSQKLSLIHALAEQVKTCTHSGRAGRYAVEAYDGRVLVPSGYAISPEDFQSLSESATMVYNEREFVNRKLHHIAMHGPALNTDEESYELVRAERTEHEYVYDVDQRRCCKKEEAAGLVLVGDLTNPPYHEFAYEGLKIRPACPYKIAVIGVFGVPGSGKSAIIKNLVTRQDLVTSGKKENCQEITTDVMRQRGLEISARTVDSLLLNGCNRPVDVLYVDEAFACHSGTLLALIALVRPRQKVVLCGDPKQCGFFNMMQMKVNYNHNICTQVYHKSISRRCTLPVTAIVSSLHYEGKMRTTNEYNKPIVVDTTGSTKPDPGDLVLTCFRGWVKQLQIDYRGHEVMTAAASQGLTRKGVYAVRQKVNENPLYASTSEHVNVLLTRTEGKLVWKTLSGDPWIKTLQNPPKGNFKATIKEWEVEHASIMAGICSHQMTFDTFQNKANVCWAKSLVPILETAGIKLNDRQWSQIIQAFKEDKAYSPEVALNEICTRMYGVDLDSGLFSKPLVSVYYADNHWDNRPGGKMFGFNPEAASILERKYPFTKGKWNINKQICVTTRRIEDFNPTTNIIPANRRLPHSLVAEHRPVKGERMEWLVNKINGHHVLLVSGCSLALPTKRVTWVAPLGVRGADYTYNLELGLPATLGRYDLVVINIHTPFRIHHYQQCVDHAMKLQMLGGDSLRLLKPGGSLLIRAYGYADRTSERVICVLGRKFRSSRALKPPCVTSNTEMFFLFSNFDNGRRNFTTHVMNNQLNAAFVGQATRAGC

CHIKV-NanoLuc [1] = test: Antiviral activity against CHIKV-NanoLuc in RPE cells; assay type: cell-based; details: Chikungunya virus, 48 h, read-out: IC50 in RPE cells
CHIKV-NanoLuc [2] = assay type: cell-based, Chikungunya virus; details: BHK-21 cells, MOI 10, 6 h post infection, concentration 10 times higher than IC50

Row | Compound | Effect on protease activity of nsP2 (amount of cleavage product) (CHIKV nsP2) | IC50 (CHIKV-NanoLuc [1]) [µM] | Virus replication (ns-protein and capsid protein expression) by western blot (CHIKV-NanoLuc [2])
1 | O=C(Nc1ncc([N+](=O)[O-])s1)c1ccccc1O [Compound 10, 2-hydroxy-N-(5-nitro-1,3-thiazol-2-yl)benzamide] | strongest inhibitory effect | 7.3 | completely inhibited
2 | O=C(Nc1ncc([N+](=O)[O-])s1)c1cccc(Cl)c1 [Compound 10b, 3-chloro-N-(5-nitro-1,3-thiazol-2-yl)benzamide] | smaller inhibitory effect than compound 10 |  | 
3 | O=C(Nc1ncc([N+](=O)[O-])s1)c1cc(Cl)ccc1Cl [Compound 10c, 2,5-dichloro-N-(5-nitro-1,3-thiazol-2-yl)benzamide] | smaller inhibitory effect than compound 10 |  | 
4 | (5Z)-3-ethyl-5-(naphthalen-1-ylmethylidene)-2-sulfanylidene-1,3-oxazolidin-4-one [Compound 1] | no effect |  | 
